The source of these data is ChEMBL document CHEMBL3526149, “Brain tissue binding of drugs: evaluation and validation of solid supported porcine brain membrane vesicles (TRANSIL) as a novel high-throughput method” (Drug Metab Dispos, 2011).

One data set has as its target Albumin (Rattus norvegicus, UniProt P02770). In words: Binding affinity to Wistar rat serum albumin. It is filed as ADME.
Data set [1] in a line: Binding affinity to Wistar rat brain lipid by TRANSIL assay. It is filed as ADME.
Data set [2] in a line: Fraction unbound in Wistar rat brain homogenate at 5 uM after 5 hrs by equilibrium dialysis method. (In general: Equilibrium dialysis compares concentrations on both sides of a semipermeable membrane.)
Data set [3] can be described thus: Ratio of fraction unbound in Wistar rat brain homogenate at 5 uM after 5 hrs by equilibrium dialysis method to fraction unbound in solid supported porcine brain membrane vesicles at 5 uM by TRANSIL assay.
A short description of data set [4]: Ratio, ratio of fraction unbound in solid supported porcine brain membrane vesicles at 5 uM dosed as discrete compounds after 5 hrs by TRANSIL assay to fraction unbound in solid supported porcine brain membrane vesicles at 5 uM using four compound cocktail after 5 hrs by TRANSIL assay. It is filed as ADME, Sus scrofa. The following applies: pig.
A short description of data set [5]: Percentage unbound in solid supported porcine brain membrane vesicles at 5 uM by TRANSIL assay. The following applies: pig.
Data set [6] is described as follows: Percentage unbound in solid supported porcine brain membrane vesicles at 5 uM using four compound cocktail after 5 hrs by TRANSIL assay. It is filed as ADME, tissue-based, Sus scrofa. The following applies: pig.
A short description of data set [7]: Binding affinity to Wistar rat brain lipid assessed as percentage unbound by TRANSIL assay. It is filed as ADME, tissue-based.
Data set [8] is described as follows: Ratio of fraction unbound in solid supported porcine brain membrane vesicles at 5 uM by TRANSIL assay to fraction unbound in Wistar rat brain homogenate at 5 uM after 5 hrs by equilibrium dialysis method. It is filed as ADME, tissue-based.
Where [9] appears, read: solid supported porcine brain membrane vesicles.

Chain of Albumin (P02770 whole entry): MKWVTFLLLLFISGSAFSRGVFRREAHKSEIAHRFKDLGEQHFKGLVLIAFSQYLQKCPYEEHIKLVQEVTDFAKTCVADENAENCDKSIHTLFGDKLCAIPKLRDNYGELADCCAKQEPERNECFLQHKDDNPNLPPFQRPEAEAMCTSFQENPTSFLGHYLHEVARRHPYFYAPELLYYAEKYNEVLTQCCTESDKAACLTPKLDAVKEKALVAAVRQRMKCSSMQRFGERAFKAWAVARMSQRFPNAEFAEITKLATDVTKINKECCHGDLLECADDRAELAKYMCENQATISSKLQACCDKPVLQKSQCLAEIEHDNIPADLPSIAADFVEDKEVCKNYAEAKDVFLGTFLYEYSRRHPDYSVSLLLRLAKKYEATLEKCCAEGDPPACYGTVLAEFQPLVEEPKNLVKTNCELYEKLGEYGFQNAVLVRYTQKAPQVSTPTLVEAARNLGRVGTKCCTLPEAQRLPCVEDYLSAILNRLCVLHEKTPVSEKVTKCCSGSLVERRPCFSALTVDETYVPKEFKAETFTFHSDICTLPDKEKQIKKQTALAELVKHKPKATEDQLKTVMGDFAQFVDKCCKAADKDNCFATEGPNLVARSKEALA

Broadly, the Kd is the concentration at which binding is half-saturated. High values mean a looser complex, low ones a tighter complex. Usually fraction unbound stands for the share of the substance not bound to proteins or other matrix. Regarding `CN(C)CCC=C1c2ccccc2CCc2ccccc21` [AMITRIPTYLINE], the results for the Kd (at Albumin; in data set [1]) were 134 µM and 1.01 µM, respectively. Besides, the values for the fraction unbound at 5 h, 5 µM in data set [2] and in [6] were 0.009 and 0.0071, respectively. Besides, the Ratio is listed as 1.2 in [3] and 1 in [4] (in vitro). The compound also yielded a fraction unbound at 5 µM in data set [5] (setting [9]) of 0.0073. For the same compound, in data set [7], the fraction unbound was 0.0083.

Take `CCCCN1CCCCC1C(=O)Nc1c(C)cccc1C` (stereo not drawn) [BUPIVACAINE]: the fraction unbound at 5 h, 5 µM in data set [2] is 0.278; in [6] it was 0.19. Also, the Ratio in data set [3] was found to be 1.6; in data set [4] (in vitro), 0.9. Further, the fraction unbound at 5 µM in data set [5] (setting [9]) came out at 0.17.

Regarding `CC(NC(C)(C)C)C(=O)c1cccc(Cl)c1` (stereo not drawn) [BUPROPION], the fraction unbound at 5 h, 5 µM in data set [2] turned out to be 0.17; in data set [6] it was 0.14. Moreover, the Ratio in data set [3] was 1; in data set [4], 1.2. Also, in [5] (setting [9]), the fraction unbound at 5 µM came to 0.17.

In turn, `Cn1c(=O)c2c(ncn2C)n(C)c1=O` [CAFFEINE] came in with a fraction unbound at 5 h, 5 µM in data set [2] of 0.52. For the same compound, the Ratio in data set [3] is 2. The compound also came in with a fraction unbound at 5 µM in data set [5] (Brain) of 0.26.

In the case of `NC(=O)N1c2ccccc2C=Cc2ccccc21` [CARBAMAZEPINE], the Kd in data set [1] was found to be 24.2 µM. The values for the unbound share (fraction unbound) at 5 h, 5 µM in [2] and in [6] were 0.119 and 0.26, respectively. For the same compound, the fraction unbound at 5 µM in data set [5] (Brain) was determined as 0.132. Moreover, in [7], the fraction unbound stood at 0.168.

`CCCC(C)(COC(N)=O)COC(=O)NC(C)C` (stereo not drawn) [CARISOPRODOL]: the Ratio in data set [8] is 1.5. The same compound registered a fraction unbound at 5 h, 5 µM in [2] of 0.202. In data set [5] (setting [9]), the fraction unbound at 5 µM came to 0.295.

Compound `CN(C)CCCN1c2ccccc2Sc2ccc(Cl)cc21` [CHLORPROMAZINE] registered a Kd in data set [1] of 0.184 µM. In addition, in data set [2], the fraction unbound at 5 h, 5 µM stood at 0.002. In addition, the fraction unbound at 5 µM in [5] (Brain) is 0.0022. Moreover, the fraction unbound in data set [7] is 0.0015.

Take `CN1CCN(C2=Nc3cc(Cl)ccc3Nc3ccccc32)CC1` [CLOZAPINE]: the Kd at Albumin worked out at 78.8 µM; in data set [1] it was 0.775 µM. For the same compound, the values for the unbound share (fraction unbound) at 5 h, 5 µM in data set [2] and in data set [6] were 0.011 and 0.0092, respectively. For the same compound, the Ratio in data set [3] is recorded as 1.5; in data set [4] (in vitro) it was 0.8. In [5] (Brain), this compound came in with a fraction unbound at 5 µM of 0.0072. Moreover, the fraction unbound in data set [7] was 0.0064.

Consider `CN(C)CCC=C1c2ccccc2C=Cc2ccccc21` [CYCLOBENZAPRINE], for which the Ratio in data set [8] is reported as 1.4. This compound came in with a free fraction (fraction unbound) at 5 h, 5 µM in data set [2] of 0.0073. The compound further had a fraction unbound at 5 µM in data set [5] (Brain) of 0.01.

As for `CNCCC(Oc1ccc(C(F)(F)F)cc1)c1ccccc1` (stereo not drawn) [FLUOXETINE], the Kd was determined as 36.1 µM on Albumin and 0.323 µM in [1]. Further, the fraction unbound at 5 h, 5 µM in [2] amounted to 0.004. Also, the Ratio in data set [3] was 1.3. This compound also registered a fraction unbound at 5 µM in data set [5] (setting [9]) of 0.003. Also, in data set [7], the fraction unbound came out at 0.0027.

In the case of `O=C(CCCN1CCC(O)(c2ccc(Cl)cc2)CC1)c1ccc(F)cc1` [HALOPERIDOL], the Kd on Albumin worked out at 96.9 µM; in [1], 1.56 µM. Also, the Ratio in [8] came out at 1.3; in [4] (in vitro), 1. Moreover, the fraction unbound at 5 h, 5 µM stood at 0.011 in data set [2] and 0.014 in data set [6]. Besides, the fraction unbound at 5 µM in [5] (Brain) was determined as 0.014. Also, the fraction unbound in data set [7] stood at 0.0129.

In the case of `OCCOCCN1CCN(C(c2ccccc2)c2ccc(Cl)cc2)CC1` (stereo not drawn) [HYDROXYZINE], in data set [8], the Ratio amounted to 2.1. Besides, in [2], the fraction unbound at 5 h, 5 µM amounted to 0.0102. The fraction unbound at 5 µM in data set [5] (Brain) worked out at 0.021.

Compound `CC(C)Cc1ccc(C(C)C(=O)O)cc1` (stereo not drawn) [IBUPROFEN] returned a Kd in [1] of 52.7 µM.

Consider `CCN(CC)CCNC(=O)c1cc(Cl)c(N)cc1OC` [METOCLOPRAMIDE], for which the affinity in data set [1], expressed as Kd, was 88.9 µM. In [2], this compound registered a fraction unbound at 5 h, 5 µM of 0.36. In addition, the fraction unbound at 5 µM in [5] (Brain) is 0.295. For the same compound, the fraction unbound in [7] came out at 0.426.

Take `Cc1ncc2n1-c1ccc(Cl)cc1C(c1ccccc1F)=NC2` [MIDAZOLAM]: the Ratio in [8] is 1.8; in data set [4] it was 1.1. Moreover, the fraction unbound at 5 h, 5 µM in data set [2] came to 0.023; in [6], 0.037. In [5] (Brain), this compound registered a fraction unbound at 5 µM of 0.041.

In data set [2], `CNCCC=C1c2ccccc2CCc2ccccc21` [NORTRIPTYLINE] had a fraction unbound at 5 h, 5 µM of 0.0046. Besides, the Ratio in data set [3] turned out to be 1.2. Moreover, the fraction unbound at 5 µM in [5] (Brain) amounted to 0.004.

In turn, `Fc1ccc([C@@H]2CCNC[C@H]2COc2ccc3c(c2)OCO3)cc1` [PAROXETINE] yielded a fraction unbound at 5 h, 5 µM in [2] of 0.0039. The Ratio in data set [3] was found to be 1.5. The same compound returned a free fraction (fraction unbound) at 5 µM in data set [5] (Brain) of 0.0026.

In data set [2], `O=C1NC(=O)C(c2ccccc2)(c2ccccc2)N1` [PHENYTOIN] yielded a free fraction (fraction unbound) at 5 h, 5 µM of 0.081. In addition, the Ratio in data set [3] was determined as 1.7. In addition, the fraction unbound at 5 µM in data set [5] (Brain) was 0.047.

Take `CC(C)NCC(O)COc1cccc2ccccc12` (stereo not drawn) [PROPRANOLOL]: the fraction unbound at 5 h, 5 µM worked out at 0.03 in data set [2] and 0.02 in data set [6]. In addition, the figures for the Ratio in data set [3] and in data set [4] (in vitro) were 1.5 and 1, respectively. The compound also registered a fraction unbound at 5 µM in data set [5] (setting [9]) of 0.02.

In turn, `Cc1nc2n(c(=O)c1CCN1CCC(c3noc4cc(F)ccc34)CC1)CCCC2` [RISPERIDONE] gave a Kd at Albumin of 43.8 µM. Also, the fraction unbound at 5 µM in data set [5] (Brain) was determined as 0.057. In addition, in data set [7], the fraction unbound came to 0.121.

With `CCN1CCCC1CNC(=O)c1cc(S(N)(=O)=O)ccc1OC` (stereo not drawn) [SULPIRIDE], the fraction unbound at 5 h, 5 µM in [2] was found to be 0.63. The Ratio in [3] was 2.6. Besides, in data set [5] (Brain), the fraction unbound at 5 µM amounted to 0.24.

With `CSc1ccc2c(c1)N(CCC1CCCCN1C)c1ccccc1S2` (stereo not drawn) [THIORIDAZINE], the dissociation constant Kd was 6.69 µM at Albumin and 0.369 µM in data set [1]. Besides, the fraction unbound at 5 h, 5 µM in data set [2] is 0.001. Further, in [3], the Ratio is on record as 3.3. In [5] (Brain), this compound registered a fraction unbound at 5 µM of 0.0003. Also, the fraction unbound in data set [7] was determined as 0.0031.

For `O=c1n(CCCN2CCN(c3cccc(Cl)c3)CC2)nc2ccccn12` [TRAZODONE], the results for the Kd (at Albumin; in [1]) were 7.95 µM and 5.47 µM, respectively. The compound also yielded a fraction unbound at 5 h, 5 µM in data set [2] of 0.055. Besides, the Ratio in data set [3] is 1. The compound also returned a fraction unbound at 5 µM in data set [5] (setting [9]) of 0.057. In addition, in data set [7], the fraction unbound was 0.0437.

Consider `CN1CCN(CCCN2c3ccccc3Sc3ccc(C(F)(F)F)cc32)CC1` [TRIFLUOPERAZINE], for which, in data set [1], binding was put at a Kd of 0.392 µM. The fraction unbound at 5 h, 5 µM in [2] turned out to be 0.0007. This compound had a fraction unbound at 5 µM in data set [5] (Brain) of 0.0018. In data set [7], the fraction unbound amounted to 0.0033.

In turn, `COc1ccc(C(CN(C)C)C2(O)CCCCC2)cc1` (stereo not drawn) [VENLAFAXINE] returned a Kd in [1] of 38.2 µM. The compound further came in with a fraction unbound at 5 h, 5 µM in data set [2] of 0.21. This compound registered a fraction unbound at 5 µM in [5] (Brain) of 0.123. Further, in data set [7], the fraction unbound stood at 0.242.

The compound `CC(=O)CC(c1ccccc1)c1c(O)c2ccccc2oc1=O` (stereo not drawn) [WARFARIN] displayed a Kd in data set [1] of 81.4 µM. In addition, in data set [7], the fraction unbound was determined as 0.405.
